Reference: ChEMBL document CHEMBL1145463, “Clonal spread of mef-positive macrolide-resistant Streptococcus pneumoniae isolates causing invasive disease in adults in Germany” (2007)
Values after ≈ are worked out from the molar mass of the structure shown.

System: Streptococcus pneumoniae
Assay: Antibacterial activity against telithromycin-susceptible Streptococcus pneumoniae
Format: functional

Q: How did the MIC90 turn out when `CC[C@H]1OC(=O)[C@H](C)C(=O)[C@H](C)[C@@H](O[C@@H]2O[C@H](C)C[C@H](N(C)C)[C@H]2O)[C@](C)(OC)C[C@@H](C)C(=O)[C@H](C)[C@H]2N(CCCCn3cnc(-c4cccnc4)c3)C(=O)O[C@]12C` [TELITHROMYCIN] was run?
A: 0.12 µg/mL (≈ 0.148 µM)
